# Several values for one entry are separate records, joined by “and”; a condition that tells them apart may be missing. Equal entries are not always repeated.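 Method: 48-hour compound exposure of cells in 96-well plates, five concentrations, linear interpolation of endpoints. GI50 marks 50% less growth. TGI marks complete inhibition of growth.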
# Legend:
# Test in all cases: NCI tumour cell line growth inhibition, 48 h
# OVCAR-4 ovarian = tested on: OVCAR-4 ovarian
# K-562 leukemia = tested on: K-562 leukemia
# OVCAR-3 ovarian = tested on: OVCAR-3 ovarian
# HOP-62 NSCLC = tested on: HOP-62 NSCLC
# HT29 colon = tested on: HT29 colon
# SK-MEL-28 melanoma = tested on: SK-MEL-28 melanoma
# IGROV1 ovarian = tested on: IGROV1 ovarian
# NCI-H522 lung = tested on: NCI-H522 lung
# PC-3 prostate = tested on: PC-3 prostate
# M14 melanoma = tested on: M14 melanoma
SMILES,GI50 (OVCAR-4 ovarian),TGI (OVCAR-4 ovarian) [µM],GI50 (K-562 leukemia) [µM],TGI (K-562 leukemia) [µM],GI50 (OVCAR-3 ovarian),TGI (OVCAR-3 ovarian) [µM],GI50 (HOP-62 NSCLC),TGI (HOP-62 NSCLC),GI50 (HT29 colon) [µM],TGI (HT29 colon) [µM],GI50 (SK-MEL-28 melanoma),TGI (SK-MEL-28 melanoma) [µM],GI50 (IGROV1 ovarian),TGI (IGROV1 ovarian) [µM],GI50 (NCI-H522 lung) [µM],TGI (NCI-H522 lung) [µM],GI50 (PC-3 prostate),TGI (PC-3 prostate) [µM],GI50 (M14 melanoma),TGI (M14 melanoma) [µM]
Oc1c(C(Nc2ccccn2)c2cccc(Oc3ccccc3)c2)ccc2cccnc12 (stereo not given),0.361 µM,13.4,0.374,> 100,0.56 µM,13.4,0.448 µM,21 µM,1.63,30.1,0.63 µM,17.8,0.538 µM,21.5,0.492,18.6,0.483 µM,20.1,–,–
O=C(c1ccccc1)C(Cl)C(Cl)c1ccccc1 (stereo not given),3.45 µM,14.4,2.6,10.3,2.03 µM,4.57,7.61 µM,21.7 µM,2.05,4.12,2.47 µM,6.46,3.45 µM,11.4,1.7,3.42,5.29 µM,15.8,2.12 µM,4.79
O=C(/C=C/C12c3ccccc3C(c3ccccc31)C1C(=O)N(c3ccc(Cl)cc3)C(=O)C12)c1ccccn1 (stereo not given),0.478 µM,> 30.9,0.267,> 100,0.224 µM,0.52,0.405 µM,2.22 µM,0.335,8.67,0.342 µM,1.61,0.248 µM,0.643,0.26,1.01,0.331 µM,1.87,0.3 µM,1.19
N#CC(C#N)=NNc1ccc2cn[nH]c2c1,–,> 100,–,> 100,–,76.1,–,> 100 µM,–,> 100,–,> 100,–,> 100,–,34.8,–,> 100,–,> 100
O=C(CCCn1c2c(sc3ccccc32)c(=O)n2nnc(-c3ccccc3)c12)NCCc1cnc[nH]1,1.84 µM,4.33,0.0456,–,2.01 µM,5.41,1.31 µM,2.87 µM,0.719,2.36,1.01 µM,2.36,0.0997 µM,2.07,0.0346,2.79,0.0603 µM,2.21,–,–
O=C1Nc2ccccc2/C1=C\c1c(-c2ccccc2)nc2sccn12,12.6 µM,62.8,0.624,> 45.8,0.506 µM,1.93,2.32 µM,9.44 µM,3.14,36.9,8.98 µM,44.9,1.98 µM,> 54.2,1.44,14.6,1.95 µM,17.4,1.98 µM,7.61
C[C@@H](N)COc1ccc(-c2cnc3ccc(N[C@H](C)c4cccc(F)c4)nn23)cc1,2.49 µM,11.9,1.95,6.96,2.12 µM,4.66,2.29 µM,11.9 µM,1.4,3.82,1.64 µM,3.07,2.18 µM,6.23,1.42,3.17,1.62 µM,9.39,1.49 µM,3
Cc1ccc([P+](Cc2ccccc2)(c2ccccc2)c2ccccc2)cc1,2.62 µM,> 100,1.26,> 100,1.52 µM,65.8,4.25 µM,> 100 µM,1.6,10.5,3.13 µM,25.8,1.92 µM,19,1.78,6.88,1.53 µM,> 100,2.78 µM,16.4
O=C(Cn1c(C(=O)c2ccc(Cl)cc2)nc(-c2ccc(Cl)cc2)c1-c1ccc(Cl)cc1)c1ccccc1,> 100 µM,> 100,> 100,> 100,> 100 µM,> 100,> 100 µM,> 100 µM,> 100,> 100,> 100 µM,> 100,> 100 µM,> 100,> 100,> 100,> 100 µM,> 100,> 100 µM,> 100
Cc1ccc([Se](=C(C(=O)c2ccccc2)C(=O)c2ccccc2)c2ccc(C)cc2)cc1,–,50.1,–,84.5,–,74.1,–,> 100 µM,–,35.2,–,> 100,–,78.5,–,72.9,–,82.5,–,> 100
Fc1cc(F)c(F)c(S)c1F,–,> 100,–,> 100,–,> 100,–,> 100 µM,–,> 100,–,> 100,–,> 100,–,37.8,–,42.2,–,> 100
O=[N+]([O-])c1ccc(/C=C/c2nc3ccc(Cl)cc3[nH]2)cc1,74 µM,> 100,5.99,> 100,22.4 µM,65.1,37.7 µM,> 100 µM,17.8,> 100,> 100 µM,> 100,35.7 µM,> 100,14.1,> 100,21.8 µM,> 100,> 100 µM,> 100
CC(=O)OCC12CN(C#N)C3C4COC(CC41)C1(C(=O)N(C)c4ccccc41)C32 (stereo not given),–,49.6,–,> 100,–,14.7,–,58.6 µM,–,> 100,–,62.9,–,85,–,24.7,–,> 100,–,61.9
Oc1cc(N2CC2)c(O)cc1N1CC1,2.28 µM,8.9,1.2,15.4,0.839 µM,4.46,0.632 µM,2.99 µM,0.384,6.79,1.71 µM,4.2,0.794 µM,3.6,0.287,1.48,1.85 µM,14.6,0.511 µM,1.93
COc1ccc2c(c1)CC[C@@H]1C2CC[C@]2(C)C(=O)N(CCN(C)C)C(=O)CC12 (stereo not given in full),–,> 100,–,> 100,–,> 100,–,> 100 µM,–,> 100,–,> 100,–,> 100,–,> 100,–,> 100,–,> 100
CN1CCN(Cc2ccc(NC(=O)c3cncc(C#Cc4c(N)ncc5ccc(C#N)cc45)c3)cc2C(F)(F)F)CC1,0.558 µM,1.37,0.005,0.266,3.61 µM,14.3,0.849 µM,1.92 µM,0.079,1.17,0.35 µM,1.1,0.816 µM,1.99,0.748,2.01,0.891 µM,1.75,0.0668 µM,0.729
N#Cc1c(NCc2ccccc2)nc(NCc2ccccc2)c(C#N)c1-c1ccc(Cl)cc1,> 50 µM and 23.9 µM,> 100,> 50,> 50,> 50 µM and 34.4 µM,> 100,> 50 µM and 22.3 µM,> 50 µM and 62.7 µM,> 100,> 100,> 50 µM and 59 µM,> 100,> 50 µM and 37.1 µM,> 100,31.7,> 100,> 50 µM and 61.2 µM,> 100,> 50 µM and 53.5 µM,> 100
CC(C)NC(=O)OCc1c(COC(=O)NC(C)C)c(-c2ccc[n+](COC(=O)Cc3ccccc3)c2)n2c1CCC2,–,57.8,–,> 100,–,> 100,–,> 100 µM,–,> 100,–,> 100,–,> 100,–,36.2,–,> 100,–,> 100
O=C([O][Hg][c]1ccccc1)c1ccccc1,1.36 µM,6.22,1.11,4.74,0.298 µM,0.843,2.16 µM,4.84 µM,2.94,9.82,1.45 µM,2.93,1.48 µM,3.58,0.275,0.754,3.29 µM,14.7,1.36 µM,2.94
COc1ccc2nc3c([N+](=O)[O-])ccc(NCCN(C)C)c3c(N)c2c1,–,2.95,–,0.607,–,3.31,–,3.65 µM,–,1.73,–,4.16,–,2.74,–,–,–,2.81,–,3.03
CC(c1cc(Cl)ccc1O)c1cc(Cl)ccc1O,5.24 µM,22.8,–,–,3.62 µM,13,3.76 µM,17.5 µM,2.74,9.13,4.13 µM,17,–,–,2.24,5.24,3.73 µM,15,2.97 µM,9.82
O=C(O)CCCCn1ccc(=O)[nH]c1=O,–,> 100,–,> 100,–,> 100,–,> 100 µM,–,> 100,–,> 100,–,> 100,–,> 100,–,> 100,–,> 100
COc1cc2c3c(n(CCCN4CCNCC4)c(=O)c2cc1OC)-c1cc2c(cc1C3=O)OCO2,4.05 µM,12.4,0.111,18.3,1.22 µM,4.35,0.0265 µM,0.138 µM,0.942,29.8,4.11 µM,19.6,2.03 µM,20.7,2.18,15.7,0.94 µM,10.1,1.09 µM,7.31
CCCCCCCCCCCCCC[n+]1ccccc1,0.32 µM,2.91,0.357,6.25,0.674 µM,2.26,–,–,0.269,1.46,1.31 µM,3.03,–,–,0.923,3.37,0.204 µM,0.774,0.459 µM,1.98
CC1CCCC(C(=O)CC2CC(=O)NC(=O)C2)C1=O (stereo not given),–,> 100,–,> 100,–,> 100,–,> 100 µM,–,> 100,–,> 100,–,> 100,–,–,–,> 100,–,> 100
COc1cc(CC(C)=O)cc(OC)c1,–,> 100,–,> 100,–,> 100,–,> 100 µM,–,> 100,–,> 100,–,> 100,–,–,–,> 100,–,> 100
CC#C[C@]1(O)CCC2[C@@H]3CCC4=CC(=O)CCC4=C3[C@@H](c3ccc(N(C)C)cc3)C[C@@]21C (stereo not given in full),–,33.5,–,58.8,–,23.5,–,50.3 µM,–,28.7,–,29.5,–,–,–,–,–,88.7,–,32.1
COc1cc(OC)cc(Oc2cnc3cc(N)cc(N)c3n2)c1,9.07 µM,21.8,20.2,46.8,1.83 µM,10.5,16.9 µM,36.6 µM,13.3,30.6,14.2 µM,28.4,–,–,18.7,37.3,24.7 µM,56,13.4 µM,26.8
Cc1nn(C(=O)c2ccccc2O)c2c1C(c1ccc(O)cc1O)SC(N)=N2 (stereo not given),–,> 10,–,> 10,–,> 10,–,> 10 µM,–,> 10,–,> 10,–,> 10,–,–,–,> 10,–,> 10
COC1=CC(c2ccc[nH]2)=N/C1=C\c1[nH]c(C)c(C(=O)CCC(=O)Oc2ccc3c(c2)CCC2C3CC[C@]3(C)[C@@H](O)CC[C@@H]23)c1C (stereo not given in full),5.02 µM,> 100,–,–,2.96 µM,27.9,1.87 µM,4.95 µM,–,–,5.64 µM,> 100,4.47 µM,> 100,1.99,6.5,3.8 µM,> 100,2.1 µM,4.6

# Reference: PubChem BioAssay (NCI)
